Where two headings read alike, the source gives them in different places.
Legend:
[1] = target: T1, rabbit reticulocyte 15-LO (Oryctolagus cuniculus, UniProt P12530); test: Rabbit Reticulocyte 15-LO Assay (h15LO); assay type: biochemical; conditions: for IC50: 2U rabbit reticulocyte 15-LO, 174 μM linoleic acid, 15 minutes at 4° C.; for h15LO, value given as bare %: concentration not given
T1 construct: Fifteen-lipoxygenase was obtained from phenylhydrazine-treated rabbits and purified per the method of Rapoport; from tissue; host or cells: reticulocytes of phenylhydrazine-treated rabbits
T1 sequence (P12530 1-663): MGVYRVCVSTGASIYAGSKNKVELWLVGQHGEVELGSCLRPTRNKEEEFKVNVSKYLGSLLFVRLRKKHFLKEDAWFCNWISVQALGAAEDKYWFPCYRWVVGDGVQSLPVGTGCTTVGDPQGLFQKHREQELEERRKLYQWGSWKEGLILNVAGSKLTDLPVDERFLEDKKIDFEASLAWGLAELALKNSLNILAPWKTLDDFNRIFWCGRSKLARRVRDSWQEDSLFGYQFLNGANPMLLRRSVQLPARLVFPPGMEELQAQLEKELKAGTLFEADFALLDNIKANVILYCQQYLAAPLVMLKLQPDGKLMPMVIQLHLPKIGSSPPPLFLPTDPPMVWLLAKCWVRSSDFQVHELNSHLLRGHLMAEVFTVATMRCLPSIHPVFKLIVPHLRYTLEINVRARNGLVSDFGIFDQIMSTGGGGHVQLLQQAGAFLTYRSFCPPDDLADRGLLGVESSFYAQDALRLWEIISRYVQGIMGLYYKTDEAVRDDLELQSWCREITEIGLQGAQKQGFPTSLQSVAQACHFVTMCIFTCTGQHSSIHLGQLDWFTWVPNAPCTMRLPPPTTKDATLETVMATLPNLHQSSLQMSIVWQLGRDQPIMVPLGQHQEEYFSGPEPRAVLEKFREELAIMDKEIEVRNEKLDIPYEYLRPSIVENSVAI
Procedure, shortened: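 Purified rabbit reticulocyte 15-LO (2U) incubated with inhibitor and 174 μM linoleic acid in PBS with 0.2% Na cholate for 15 minutes at 4° C. 13-HPODE quantified by peak area against 13-HODE standard curve; % inhibition relative to uninhibited reaction.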

A melting point of 170 to 171 °C and an IC50 ([1]; Table 2) of 1460 nM were found for COc1ccc(NC(=O)c2ccc(O)c(Nc3cc(Cl)cc(Cl)c3)c2)cc1O [Example 59, 3-(3,5-Dichloro-phenylamino)-4-hydroxy-N-(3-hydroxy-4-methoxyphenyl)-benzamide] in this work.
A melting point of 165 to 166 °C and an IC50 ([1]; Table 2) of 629 nM were found for O=C(Nc1ccc(F)cc1)c1ccc(OC(F)(F)F)c(NC(=S)Nc2cc(Cl)cc(Cl)c2)c1 [Example 163, 3-[3-(3,5-Dichloro-phenyl)-thioureido]-4-trifluoromethoxy-N-(4-fluoro-phenyl)-benzamide] in this work.
A melting point of 184 to 186 °C and an IC50 ([1]; Table 2) of 25 nM were found for COc1ccc(S(=O)(=O)Nc2cc(C(=O)Nc3ccccc3)ccc2OC)cc1 [Example 121, 3-(4-Methoxy-benzenesulfonylamino)-4-methoxy-N-phenyl-benzamide] in this work.
A melting point of 168 to 170 °C and an IC50 ([1]; Table 2) of 10 nM were found for COc1ccc(C(=O)Nc2ccccc2)cc1Nc1cccc(Cl)c1 [Example 31, 3-(3-Chloro-phenylamino)-4-methoxy-N-phenyl-benzamide] in this work.
A melting point of 193 to 195 °C and an IC50 ([1]; Table 2) of 24 nM were found for COc1ccc(C(=O)Nc2ccccc2)cc1NC(=S)Nc1ccc(S(N)(=O)=O)cc1 [Example 90, 4-Methoxy-N-phenyl-3-[3-(4-sulfamoyl-phenyl)-thioureido]-benzamide] in this work.
A melting point of 190 to 194 °C and an inhibition at 10 µM ([1]; Table 1, read-out: h15LO % Inhibition at 10 μM) of 67% were found for COc1ccc(C(=O)Nc2ccc(C)cc2)cc1N [Example 7, 3-Amino-4-methoxy-N-(4-methylphenyl)-benzamide] in this work.
For COc1ccc(C(=O)Nc2ccccc2)cc1NCCc1cccc(C(F)(F)F)c1 [Example 253, 4-Methoxy-N-phenyl-3-[2-(3-trifluoromethyl-phenyl)-ethylamino]-benzamide], the melting point was 142 to 144 °C and the “h15LO, value given as bare %” value ([1]; Table 2) was 60.56%.
A melting point of 208 to 210 °C and an IC50 ([1]; Table 2) of 187 nM were found for COc1ccc(C(=O)Nc2ccccc2)cc1NS(=O)(=O)c1cccc([N+](=O)[O-])c1 [Example 122, 3-(3-Nitro-benzenesulfonylamino)-4-methoxy-N-phenyl-benzamide] in this work.
A melting point of 107 to 109 °C and an IC50 ([1]; Table 2) of 167 nM were found for COc1ccc(C(=O)Nc2ccccc2)cc1NS(=O)(=O)c1ccccc1Cl [Example 127, 3-(2-Chlorobenzenesulfonylamino)-4-methoxy-N-phenyl-benzamide] in this work.
A melting point of 163 to 165 °C and an inhibition at 10 µM ([1]; 0.25 h, Table 2, read-out: h15LO % @ 10 μM) of 26% were found for COc1ccc(S(=O)(=O)Nc2ccccc2)cc1NC(=S)Nc1cc(Cl)cc(Cl)c1 [Example 109, 3-[3-(3,5-Dichlorophenyl)-thioureido]-4-methoxy-N-phenyl-benzenesulfonamide] in this work.
A melting point of 194 to 197 °C was found for Nc1cc(C(=O)Nc2ccccc2)ccc1Cl [Example 13, 3-Amino-4-chloro-N-phenyl-benzamide] in this work.
A melting point of 151 to 153 °C was found for Nc1cc(NC(=O)c2ccc(Cl)c(Cl)c2)ccc1F [Example 22, 3,4-Dichloro-N-(3-amino-4-fluorophenyl)-benzamide] in this work.
A melting point of 174 to 175 °C was found for COc1ccc(NC(=O)Nc2ccccc2)cc1N [Example 24, 1-(3-Amino-4-methoxyphenyl)-3-phenyl-urea] in this work.
In the case of COc1ccc(C(=O)Nc2ccc(Cl)c(Cl)c2)cc1NS(=O)(=O)c1cc(Cl)cc(Cl)c1 [Example 117, 3-(3,5-Dichloro-benzenesulfonylamino)-4-methoxy-N-(3,4-dichlorophenyl)-benzamide], the melting point is reported as > 230 °C (dec.).
A melting point of 188 to 189 °C was found for COc1ccc(C(=O)Nc2cc(C)cc(C)c2)cc1NC(=S)Nc1cccc(C)c1 [Example 103, N-(3,5-Dimethylphenyl)-4-methoxy-3-(3-m-tolyl-thioureido)-benzamide] in this work.
A melting point of 209 to 210 °C was found for COc1ccc(NC(=O)c2ccccc2)cc1Nc1ccccc1 [Example 49, N-[3-(Phenylamino)-4-methoxy-phenyl]-benzamide] in this work.
A melting point of 149 to 151 °C was found for Cc1ccc(C(=O)Nc2ccccc2)cc1N [Example 1, 3-Amino-4-methyl-N-phenyl-benzamide] in this work.
With COc1ccc(C(=O)Nc2ccc(F)cc2)cc1Nc1ccc(F)cc1 [Example 155, 3-(4-Fluoro-phenylamino)-4-methoxy-N-(4-fluoro-phenyl)-benzamide] the “h15LO, value given as bare %” value ([1]; Table 2) was 94.44%.
An IC50 ([1]; Table 2) of 36 nM was found for COc1ccc(NC(=O)c2ccc(Cl)c(Cl)c2)cc1NS(=O)(=O)c1ccc(C)cc1 [Example 197, 3,4-Dichloro-N-[4-methoxy-3-(toluene-4-sulfonylamino)-phenyl]-benzamide] in this work.
In the case of COc1ccc(C(=O)Nc2ccc(Cl)c(Cl)c2)cc1NCc1cccs1 [Example 261, 4-Methoxy-3-[(thiophen-2-ylmethyl)-amino]-N-(3,4-dichloro-phenyl)-benzamide], the “h15LO, value given as bare %” value ([1]; Table 2) is reported as 98.57%.
In the case of COc1ccc(C(=O)Nc2ccc(F)c(F)c2)cc1NCc1cccc(C(=O)O)c1 [Example 230, 3-{[5-(3,4-Difluoro-phenylcarbamoyl)-2-methoxy-phenylamino]-methyl}-benzoic Acid], the “h15LO, value given as bare %” value ([1]; Table 2) is reported as 92.57%.
An IC50 ([1]; Table 2) of 7 nM was found for CCCCCCCCCCS(=O)(=O)Nc1cc(C(=O)Nc2ccccc2)ccc1OC [Example 179, 3-(Decane-1-sulfonylamino)-4-methoxy-N-phenyl-benzamide] in this work.
With Nc1cc(NC(=O)c2ccc(F)c(F)c2)ccc1F [Example 151, 3,4-Difluoro-N-(3-amino-4-fluoro-phenyl)-benzamide] the “h15LO, value given as bare %” value ([1]; Table 2) was 82.66%.
A melting point of 179 to 180 °C was found for COc1ccc(C(=O)Nc2cccnc2)cc1NC(=S)Nc1ccc(Cl)c(Cl)c1 [Example 100, 3-[3-(3,4-Dichlorophenyl)-thioureido]-4-methoxy-N-pyridin-3-yl-benzamide] in this work.
With COc1ccc(C(=O)Nc2ccccc2)cc1N(S(=O)(=O)c1cc(Cl)cc(Cl)c1)S(=O)(=O)c1cc(Cl)cc(Cl)c1 [Example 251, 3-[Bis[(3,5-dichlorophenyl)sulfonyl]amino]-4-methoxy-N-phenyl-benzamide] the “h15LO, value given as bare %” value ([1]; Table 2) was 62.01%.
In the case of COc1ccc(NC(=O)c2ccc(F)c(F)c2)cc1NCc1cccc(O)c1 [Example 245, 3,4-Difluoro-N-[3-(3-hydroxy-benzylamino)-4-methoxy-phenyl]-benzamide], the “h15LO, value given as bare %” value ([1]; Table 2) is reported as 98.02%.
An IC50 ([1]; Table 2) of 213 nM was found for COc1ccc(C(=O)Nc2ccccc2)cc1NCc1ccc(N(C)C)cc1 [Example 268, 3-(4-Dimethylamino-benzylamino)-4-methoxy-N-phenyl-benzamide] in this work.
With COc1ccc(C(=O)Nc2ccccc2)cc1NCc1cccc(C(=O)O)c1 [Example 241, 3-[(2-Methoxy-5-phenylcarbamoyl-phenylamino)-methyl]-benzoic Acid] the “h15LO, value given as bare %” value ([1]; Table 2) was 56.33%.
For COc1ccc(NC(=O)c2ccc(F)c(F)c2)cc1NS(=O)(=O)CCl [Example 201, 3,4-Difluoro-N-[4-methoxy-3-(chloromethyl-sulfonylamino)-phenyl]. benzamide], the “h15LO, value given as bare %” value ([1]; Table 2) was 93.97%.
With COc1ccc(NC(=O)Nc2ccc(Cl)c(Cl)c2)cc1NC(=S)Nc1cc(C(F)(F)F)cc(C(F)(F)F)c1 [Example 174, 1-{3-[3-(3,5-Bis-trifluoromethyl-phenyl)-thioureido]-4-methoxy-phenyl}-3-(3,4-dichloro-phenyl)-urea] the “h15LO, value given as bare %” value ([1]; Table 2) was 53%.
For COc1ccc(C(=O)Nc2ccc(F)cc2)cc1NC(=S)Nc1ccc(C(=O)O)cc1 [Example 166, 4-{3-[5-(4-Fluoro-phenylcarbamoyl)-2-methoxy-phenyl]-thioureido}-benzoic Acid], the “h15LO, value given as bare %” value ([1]; Table 2) was 98.11%.
With COc1ccc(C(=O)Nc2ccc(F)cc2)cc1NS(=O)(=O)c1cccc(C#N)c1 [Example 189, 3-(3-Cyano-benzenesulfonylamino)-4-methoxy-N-(4-fluoro-phenyl)-benzamide] the “h15LO, value given as bare %” value ([1]; Table 2) was 97.17%.
An IC50 ([1]; Table 2) of 86 nM was found for COc1ccc(NC(=O)c2ccc(Cl)c(Cl)c2)cc1NCc1cccc(F)c1 [Example 244, 3,4-Dichloro-N-[3-(3-fluoro-benzylamino)-4-methoxy-phenyl]-benzamide] in this work.
An IC50 ([1]; Table 2) of 10 nM was found for COc1ccc(C(=O)Nc2ccccc2)cc1Nc1cccc(C(F)(F)F)c1 [Example 30, 3-(3-Trifluoromethyl-phenylamino)-4-methoxy-N-phenyl-benzamide] in this work.
An IC50 ([1]; Table 2) of 180 nM was found for O=C(Nc1ccccc1)c1ccc(O)c(Nc2ccccc2)c1 [Example 145, 4-Hydroxy-3-phenylamino-N-phenyl-benzamide] in this work.
For COc1ccc(C(=O)Nc2ccccc2)cc1NCc1ccc([N+](=O)[O-])c(O)c1 [Example 228, 3-(3-Hydroxy-4-nitro-benzylamino)-4-methoxy-N-phenyl-benzamide], the “h15LO, value given as bare %” value ([1]; Table 2) was 92.92%.
For Cc1ccc(C(=O)Nc2ccccc2)cc1NC(=O)c1cc(Cl)cc(Cl)c1 [Example 255, 3-[(3,5-Dichlorobenzoyl)amino]-4-methyl-N-phenyl-benzamide], the “h15LO, value given as bare %” value ([1]; Table 2) was 47%.

From US6528528B2 (Warner-Lambert Company, priority 1997, dated 2003)
